Measurements published in DBAASP.
Converted amounts (≈) assume the structure as drawn. Each block holds one molecule with its values, some of them ahead of it.

Tests used:
Experiment in all cases: ≥ marks a high value that may be exact or a test limit, other limits are often not marked, values filed in µg/mL are converted to µM
[1] = system: Bacillus subtilis KCTC 3068
Enterococcus faecalis VR = system: Enterococcus faecalis VR
Enterococcus faecalis = system: Enterococcus faecalis
Enterococcus faecium VR = system: Enterococcus faecium VR
Enterococcus faecium = system: Enterococcus faecium
[2] = system: Escherichia coli KCTC 1682
[3] = system: Pseudomonas aeruginosa KCTC 1637
[4] = system: Salmonella typhimurium KCTC 1926
[5] = system: Staphylococcus aureus KCTC 1621
Staphylococcus aureus MR = system: Staphylococcus aureus MR
[6] = system: Staphylococcus epidermidis KCTC 1917
Bacillus cereus C737 = system: Bacillus cereus C737
Escherichia coli UB1005 = system: Escherichia coli UB1005
[7] = system: Pseudomonas aeruginosa PAO1
[8] = system: Acinetobacter baumannii ATCC 19606
[9] = system: Aspergillus niger ATCC 16404
[10] = system: Candida albicans ATCC 10231
[11] = system: Candida glabrata ATCC 15126
[12] = system: Enterococcus faecalis PCM 2673
[13] = system: Escherichia coli ATCC 23506
[14] = system: Escherichia coli ATCC 25922
[15] = system: Klebsiella pneumoniae ATCC 700603
[16] = system: Pseudomonas aeruginosa ATCC 9027
[17] = system: Staphylococcus aureus ATCC 25923
[18] = system: Staphylococcus aureus ATCC 9144
[19] = system: Streptococcus pneumoniae ATCC 49619
[20] = system: Bacillus subtilis ATCC 6051
[21] = system: Pseudomonas aeruginosa ATCC 27853
[22] = system: Vibrio anguillarum ATCC 43305

MIC [1]: 30 µM (≈ 28.4 µg/mL)
MIC (Enterococcus faecalis VR): 30 µM (≈ 28.4 µg/mL)
MIC (Enterococcus faecalis): 30 µM (≈ 28.4 µg/mL)
MIC (Enterococcus faecium VR): 30 µM (≈ 28.4 µg/mL)
MIC (Enterococcus faecium): 30 µM (≈ 28.4 µg/mL)
MIC [2]: 30 µM (≈ 28.4 µg/mL)
MIC [3]: 30 µM (≈ 28.4 µg/mL)
MIC [4]: 30 µM (≈ 28.4 µg/mL)
MIC [5]: 30 µM (≈ 28.4 µg/mL)
MIC (Staphylococcus aureus MR): 30 µM (≈ 28.4 µg/mL)
MIC [6]: 30 µM (≈ 28.4 µg/mL)
SMILES: CC(C)C[C@H](NC(=O)[C@H](CO)NC(=O)[C@H](CC(C)C)NC(=O)[C@H](CS)NC(=O)[C@H](CC(N)=O)NC(=O)[C@H](C)NC(=O)[C@H](C)N)C(=O)NCC(=O)N[C@@H](CCCCN)C(=O)N[C@@H](C)C(N)=O [AANCLSLGKA]

MIC (Bacillus cereus C737): ≥ 79.9 µM
MIC (Escherichia coli UB1005): ≥ 40 µM
MIC [7]: > 79.9 µM
SMILES: CC[C@H](C)[C@H](NC(=O)[C@H](CC(=O)O)NC(=O)[C@H](Cc1ccccc1)NC(=O)[C@H](CC(C)C)NC(=O)CN)C(=O)N[C@H](C(=O)N[C@@H](CCCCN)C(=O)N[C@@H](CCCCN)C(=O)N[C@H](C(=O)N[C@H](C(=O)NCC(=O)N[C@@H](C)C(=O)N[C@H](C(=O)NCC(=O)N[C@@H](CO)C(=O)N[C@@H](CC(C)C)C(N)=O)C(C)C)C(C)C)C(C)C)C(C)C [GLFDIVKKVVGAVGSL]

MIC [8]: 8.99 µM (≈ 16 µg/mL)
MIC [9]: ≥ 36 µM
MIC [10]: 18 µM (≈ 32 µg/mL)
MIC [11]: ≥ 36 µM
MIC [12]: 8.99 µM (≈ 16 µg/mL)
MIC [13]: 2.25 µM (≈ 4 µg/mL)
MIC [14]: 4.49 µM (≈ 8 µg/mL)
MIC [15]: 2.25 µM (≈ 4 µg/mL)
MIC [16]: 2.25 µM (≈ 4 µg/mL)
MIC [17]: 4.49 µM (≈ 8 µg/mL)
MIC [18]: 4.49 µM (≈ 8 µg/mL)
MIC [19]: 4.49 µM (≈ 8 µg/mL)
SMILES: CC[C@H](C)[C@H](NC(=O)[C@H](CC(C)C)NC(=O)[C@H](CCCN=C(N)N)NC(=O)[C@H](Cc1c[nH]c2ccccc12)NC(=O)[C@@H]1CCCN1C(=O)[C@H](Cc1c[nH]c2ccccc12)NC(=O)[C@H](Cc1c[nH]c2ccccc12)NC(=O)[C@@H]1CCCN1C(=O)[C@H](Cc1c[nH]c2ccccc12)NC(=O)[C@H](CCCN=C(N)N)NC(=O)[C@H](CCCN=C(N)N)NC(=O)[C@@H](N)CCCCN)C(N)=O [KRRWPWWPWRLI]

MIC [8]: 8 µM (≈ 22.9 µg/mL)
MIC [20]: ≥ 32 µM
MIC [14]: 11.3 µM (≈ 32.4 µg/mL)
MIC [21]: > 32 µM
MIC [17]: > 32 µM
MIC [22]: ≥ 32 µM
SMILES: CC(C)C[C@H](N)C(=O)N[C@@H](CCCN=C(N)N)C(=O)N[C@@H](Cc1c[nH]c2ccccc12)C(=O)N[C@H](C(=O)N1CCC[C@H]1C(=O)N[C@H](C(=O)N1CCC[C@H]1C(=O)N[C@@H](CO)C(=O)N[C@@H](Cc1ccc(O)cc1)C(=O)N1CCC[C@H]1C(=O)N[C@@H](CCCN=C(N)N)C(=O)N[C@@H](Cc1ccc(O)cc1)C(=O)N1CCC[C@H]1C(=O)N[C@H](C(=O)N[C@@H](CCCN=C(N)N)C(=O)N[C@@H](CO)C(=O)N[C@@H](CCCN=C(N)N)C(=O)NCC(=O)N[C@@H](CO)C(=O)N[C@@H](CCCN=C(N)N)C(=O)N[C@@H](Cc1c[nH]c2ccccc12)C(=O)N[C@@H](CO)C(=O)N[C@@H](CCCN=C(N)N)C(N)=O)[C@@H](C)O)[C@@H](C)O)[C@@H](C)O [LRWTPTPSYPRYPTRSRGSRWSR]
